{
  "source": "patent US20220304951A1",
  "about": "“ANTICANCER COMPOSITIONS AND METHODS FOR USING SAME” (Lispiro LLC, priority 2021, published 2022)",
  "type_in_all_cases": "cell-based",
  "key": {"[1]": {"tested_on": "normal human epithelial like cells (CRL-1790)", "test": "New fuchsine treatment of normal human epithelial like cells, H&E staining, light microscopy (Example 2)", "settings": "all tested concentrations (50 uM), 12 hours, H&E stain", "procedure": "(§1) 2 flasks Thermo Scientific Nunc Nunclon Delta Surface 12.5 cm (Cat. No 136196) with McCoy's5A complete medium were seeded with cell culture of CRL1790 (ATCC) and 2 flasks Thermo Scientific Nunc Nunclon Delta Surface 12.5 cm (Cat. No 136196) with DMEM complete medium were seeded with cell culture of HT1080 (ATCC) and were kept at 37 degrees 5% CO2 in CO2 incubator until it reached of 100% confluence (2 days). After reaching of 100% confluence medium with 10% of FBS was changed to the same medium with different concertation of New Fuchsin (0 uM, and 50 uM) (Sigma Cat. No 72200). Flasks were kept in the CO2 incubator 5% CO2, 37-degree C for additional 12 hours. After 12 hours of treatment all flasks were stained by fixed by 10% Formaldehyde and stained by H&E. After completing of the staining protocol the flasks were examined in the light microscope under magnification x100 and multiple pictures were taken using Olympus BX51 microscope and Olympus DP73 digital camera."}, "[2]": {"tested_on": "Human colon carcinoma cells (HT29)", "test": "New fuchsine treatment of human colon carcinoma cells, H&E staining, light microscopy (Example 1)", "settings": "48 hours, H&E stain", "procedure": "(§2) 4 flasks Thermo Scientific Nunc Nunclon Delta Surface 12.5 cm (Cat.No136196) with McCoy's5A complete medium were seeded with cell culture of CRL1790 (ATCC) and 4 flasks Thermo Scientific Nunc Nunclon Delta Surface 12.5 cm (Cat.No136196) with McCoy's5A complete medium were seeded with cell culture of HT29 (ATCC) and were kept at 37 degrees 5% CO2 in CO2 incubator until it reached of 70% confluence (2 days). After reaching of 70% confluence flasks McCoy's5A medium with 10% of FBS was changed to the same medium with different concertation of new fuchsine (0 uM, 25 uM, 50 uM, 100 uM, 150 uM) (Sigma Cat. No 72200). Flasks were kept in the CO2 incubator 5% CO2, 37-degree C for additional 48 hours. After 48 hours of treatment all flasks were stained by fixed by 10% Formaldehyde and stained by H&E. After completing of the staining protocol the flasks were examined in the light microscope under magnification x100 and multiple pictures were taken using Olympus BX51 microscope and Olympus DP73 digital camera."}, "[3]": {"tested_on": "normal human epithelial like cells (CRL-1790)", "test": "New fuchsine treatment of normal human epithelial like cells, H&E staining, light microscopy (Example 1)", "settings": "all tested concentrations (25, 50, 100, 150 uM), 48 hours, H&E stain", "procedure": "as §2"}, "[4]": {"tested_on": "human colon adenocarcinoma cells (HT29)", "test": "New fuchsine treatment of HT29 cells, Trypan blue, automatic cell counter (Example 4)", "procedure": "(§3) The general study methods of study were as follows: HT29 cells were grown in incubator at 37 degrees C. and 5% CO2 until 70% confluence was reached. After reaching of 70% confluence, medium was changed to medium with different concentration of new fuchsine (0 μM, 15 μM, 31 μM, 62 μM, 125 μM and 250 μM). Flasks were kept in the CO2 incubator (5% CO2, 37-degree C) for additional 24 hours. After 24 hours of treatment cells were detached with Trypsin, washed with fresh medium and stained with Trypan blue. Cell viability was examined in automatic cell counter (Invitrogen)."}, "[5]": {"tested_on": "Fibrosarcoma cells (HT-1080)", "test": "New fuchsine treatment of human fibrosarcoma cells, H&E staining, light microscopy (Example 2)", "settings": "new fuchsine 50 uM, 12 hours, H&E stain; corresponds to empty plastic", "procedure": "as §1"}, "[6]": {"tested_on": "Human Cervical carcinoma cell line (HeLa)", "test": "New fuchsine treatment of HeLa cells, Trypan blue, automatic cell counter (Example 3)", "procedure": "as §3, with “Hela cells” for “The general study methods of study were as follows: HT29 cells”, “were growing” for “were grown”, “different concentrations” for “different concentration”, “of treatment,” for “of treatment”, “blue. Number of cells and” for “blue. Cell”, “viability were” for “viability was”"}, "[7]": {"settings": "new fuchsine 250 uM, 24 hours, Trypan blue"}},
  "data": [
    {"smiles": "CC1=CC(=C(c2ccc(N)c(C)c2)c2ccc(N)c(C)c2)C=CC1=N.Cl", "note": "[new fuchsine, [4-[bis(4-amino-3-methylphenyl)methylidene]-2-methylcyclohexa-2,5-dien-1-ylidene]azanium; chloride]", "values": [
      {"measurement": "visual toxicity to normal human epithelial like cells (CRL-1790)", "setting": "[1]", "result": "did not exhibit any visual toxicity"},
      {"measurement": "concentration at which first signs of toxicity to colon carcinoma cells (HT29) can be seen", "setting": "[2]", "result": 50, "unit": "µM"},
      {"measurement": "toxicity to carcinoma cells (HT29)", "setting": "[2]; new fuchsine 150 uM, corresponds to empty plastic", "result": 100, "unit": "%"},
      {"measurement": "visual toxicity to normal human epithelial like cells (CRL-1790)", "setting": "[3]", "result": "did not exhibit any visual toxicity"},
      {"measurement": "toxicity to human colon adenocarcinoma cells (HT29)", "setting": "[4]; all tested concentrations (15, 31, 62, 125, 250 μM), 24 hours, Trypan blue viability", "result": "did exhibit toxicity"},
      {"measurement": "toxicity to colon adenocarcinoma cells (HT29)", "setting": "[4]; [7]", "result": "< 100", "unit": "%"},
      {"measurement": "efficacy for colon carcinoma (HT29 cells) compared with cervical carcinoma (HeLa cells), summary", "setting": "[4]; summary of the examples", "result": "much less effective"},
      {"measurement": "toxicity to Fibrosarcoma cells (HT-1080)", "setting": "[5]", "result": 100, "unit": "%"},
      {"measurement": "toxicity to human carcinoma cells (HeLa)", "setting": "[6]; all tested concentrations (15, 31, 62, 125, 250 μM), 24 hours, Trypan blue viability and cell count", "result": "exhibited toxicity"},
      {"measurement": "toxicity to carcinoma cells (HeLa)", "setting": "[6]; [7]", "result": 100, "unit": "%"},
      {"measurement": "cytotoxic effect on cervical carcinoma (HeLa cells), summary", "setting": "[6]; summary of the examples", "result": "high efficacy, dose dependent cytotoxic effect"}
    ]}
  ]
}
